Assay results from US6565864B2, “Skin care product containing retinoids and phytoestrogens in a dual compartment package” (Unilever Home & Personal Care USA, a division of Conopco, …, priority 2000, dated 2003).
Like-named read-outs stand apart in the source and are kept apart here. Blank lines part the entries; values can stand above or below the compound they belong to.

How the values were obtained:
CRABP-2 = CRABP-2 protein expression in human adult fibroblasts (dot blot immunostaining) as a measure of retinoid activity; type: cell-based; conditions: for CRABP-2 % as Control: control = 100%; for CRABP-2 production: human adult fibroblasts; for Synergy of phytoestrogen with retinoids (in words): soluble form, CRABP-2 in fibroblasts
Experimental: Human adult fibroblasts obtained from sun-protected inner arm of 25-30 year […] volunteer were used in this. Cells were grown in 1:1 DMEM/Hams F12 media containing 10% FBS, maintained at 37° C. in a 5% CO2 atmosphere under normal atmosphere oxygen tension. Third passage adult fibroblasts were grown in DMEM media with 10% FBS in 12-well plates at a seeding density of 2500 cells/ml/well. The cells at 80% confluence were rinsed in serum free and phenol red free (PRF) DMEM media twice. Pre-treatment with phyto-compounds for 4 hours was conducted and then dosed with retinoids and was incubated for 48 hours. After the incubation, the wells were washed twice with 1×PBS and the cell monolayer was harvested in 100 μl cell lysis buffer (contains 1×PBS, 1% Triton X, 0.5% sodium deoxycholate, 0.1% SDS containing protease inhibitor (10 mg/ml PMSF in isopropanol, 10 μl/ml). The suspension was spun at 14000 rpm for 10 minutes, the supernatant collected and an aliquot of this supernatant was used for protein quantification. Protein concentration was determined using Pierce protein kit. The remainder of 100 μl supernatant (cell lysate) was denatured in a mixture of 40 μl sample buffer (NOVEX) and 0.5% Beta mercaptoethanol (BME) and by boiling the sample for 5 minutes.
(b) Detection of Cellular Retinoic Acid Binding Protein 2 (CRABP-2)
These proteins act in regulating the intracellular concentration of retinoids by acting as both storage or shuttle proteins in retinoid metabolism. High or low levels of retinoids cause cell damage, including cell death, therefore regulation of constant levels of retinoids and its binding proteins are very critical for cell survival. The levels of this protein are regulated by the amount of retinoic acid within the cells. Higher cellular levels of retinoids increase the expression of CRABP-2. Therefore, the amount of this protein in the cells, is a measure of the retinoid activity of the cells. Skin cells contain high levels of CRABP-2 both in the epidermis and the dermis. CRABP-2 response to retinoid administration in fibroblasts in vitro is used as a reproducible measure of retinoid bioactivity that predict human skin responses. […] Increase in CRABP-2 is also associated with increased epidermal differentiation, and dermal retinoid action. Therefore, in these studies CRABP-2 expression of fibroblasts was used as a measure of retinoid activity leading to increased epidermal differentiation (skin conditioning and dry skin benefit) and dermal collagen and extracellular matrix synthesis (anti-aging, anti-wrinkling benefits).
To measure the levels of CRABP-2 in the fibroblasts, the equal amount of protein of cell supernatant were loaded onto nitrocellulose blots in a dot blot apparatus as instructed by the manufacturer, and immunostaining was carried out using monoclonal antibodies to CRABP-2 according to standard procedures. The CRABP-2 protein band was visualized in the Dot Blots using the chemiluminescence system obtained from Santa Cruz Biotechnology (SantaCruz, Calif.). The bands in the film were quantitated by dens tometric scanning, the data from the triplicate samples were calculated as % of control and expressed in the following tables as % increase over control (with control as 100%) +/−SD triplicates.

[1] = Stability of retinol in aqueous ethanol in the presence of phytoestrogenic flavonoids (OD 360 nm); type: physicochemical; conditions: for Retinol degraded: 0.001 %
Experimental: Retinol was dissolved as a 10% solution in aqueous ethanol (1:1 water:ethanol). This solution was diluted to 0.001%, or approximately 30 μM). This solution gave an OD of about 0.35 absorption unit at 360 nm in a 96 well plate spectrophotometer.
Aqueous ethanolic stock solutions of the genistein, daidzein were prepared as 0.1%, 0.01% or 0.001%. To 200 μl of 0.001% retinol solution in a 96 well plate was added 20 μl of the flavonoid (i.e. 1-10 dilution) giving a final flavonoid concentration of 0.01, 0.001 and 0.0001%. The plates were mixed and an initial OD reading was taken at 360 nm. The plates were incubated at room temperature in the dark for up to 2 days and subsequent readings were taken at 8, 24 and 48 hours. The OD readings at these time points were normalized to the 0 time point reading. The retinol stability was expressed as % of retinol (OD reading) at 0 time.
The following tables show the effect of genistein and daidzein on destabilizing retinol. The experiment was done as described in methods section. The OD readings from duplicate measurements were averaged and given here.

[2] = 100 nM retinoid alone, 48 hours

Structure (SMILES): O=c1c(-c2ccc(O)cc2)coc2cc(O)ccc12 [Daidzein]
CRABP-2 % as Control (CRABP-2; 1 μM phytoestrogen alone): 513 +/− 227%
CRABP-2 production (CRABP-2; 1 μM phytoestrogen alone): 1.49 +/− 0.66
Synergy of phytoestrogen with retinoids (in words) (CRABP-2): stimulate retinoid activity in a synergistic manner
Effect of the flavonoid on retinol stability (in words) [1]: marked increases in the instability of retinol

Structure (SMILES): O=c1c(-c2ccc(O)cc2)coc2cc(O)cc(O)c12 [Genistein]
CRABP-2 stimulation (in words) (CRABP-2; 1 μM alone, delivered in DMSO: ethanol): stimulated CRABP-2 significantly
CRABP-2 % as Control (CRABP-2; 1 μM phytoestrogen alone): 655 +/− 247%
CRABP-2 production (CRABP-2; 1 μM phytoestrogen alone): 1.9 +/− 0.71
Synergy of phytoestrogen with retinoids (in words) (CRABP-2): stimulate retinoid activity in a synergistic manner
Effect of the flavonoid on retinol stability (in words) ([1]; 0.0001-0.01% flavonoid with 0.001% retinol): marked increases in the instability of retinol

Structure (SMILES): CC1=C(/C=C/C(C)=C/C=C/C(C)=C/C(=O)O)C(C)(C)CCC1 [Retinoic acid, reference compound]
CRABP-2 % as Control (CRABP-2; 1 nM retinoid alone): 335 +/− 162%
CRABP-2 production (CRABP-2; 1 nM retinoid alone, 48 hours): 0.97 +/− 0.47
CRABP-2 % as Control (CRABP-2; 10 nM retinoid alone): 428 +/− 101%
CRABP-2 production (CRABP-2; 10 nM retinoid alone, 48 hours): 1.24 +/− 0.29

Retinol degraded ([1]; 8 h): 8%
Retinol degraded ([1]; 24 h): 14%
Retinol degraded ([1]; 48 h): 19%
Structure (SMILES): CC1=C(/C=C/C(C)=C/C=C/C(C)=C/CO)C(C)(C)CCC1 [Retinol]

Structure (SMILES): CC(=O)OC/C=C(C)/C=C/C=C(C)/C=C/C1=C(C)CCCC1(C)C [Retinyl Acetate]
CRABP-2 % as Control (CRABP-2; 100 nM retinoid alone): 209 +/− 118%
CRABP-2 production (CRABP-2; [2]): 0.60 +/− 0.32

Structure (SMILES): CCCCC/C=C\C/C=C\CCCCCCCC(=O)OC/C=C(C)/C=C/C=C(C)/C=C/C1=C(C)CCCC1(C)C [Retinyl Linoleate]
CRABP-2 % as Control (CRABP-2; 100 nM retinoid alone): 181 +/− 110%
CRABP-2 production (CRABP-2; [2]): 0.52 +/− 0.3

Structure (SMILES): CCCCCCCCCCCCCCCC(=O)OC/C=C(C)/C=C/C=C(C)/C=C/C1=C(C)CCCC1(C)C [Retinyl Palmitate]
CRABP-2 % as Control (CRABP-2; 100 nM retinoid alone): 434 +/− 177%
CRABP-2 production (CRABP-2; [2]): 1.26 +/− 0.51
